# Patent US9675606B2, “2-amino-3-(imidazol-2-yl)-pyridin-4-one derivatives and their use as VEGF receptor kinase inhibitors” (SANOFI, priority 2011, dated 2017)
# Like-named read-outs stand apart in the source and are kept apart here.
# Columns and labels:
# VEGFR-3 [1] = biological target: T1, VEGFR-3 (Homo sapiens, UniProt P35916); assay: Ex vivo assay: VEGFR-3 autophosphorylation in HEK cells incubated with plasma of mice dosed p.o.; design: species or system male Balb/c mice; settings: HEK293, mouse, transfected HEK cells incubated with plasma (10%), read-out: Ex vivo inhibition (%) At the time
# T1 construct: expressed in transfected cells; host or cells: HEK293T cells, transient transfection with Fugene-6
# Experimental: Protocol for administration of the products to the mice:
# The products are prepared in a mortar with 0.5% Tween 80 and 0.6% methylcellulose qs final volume. The suspensions are administered by gavage (10 ml/kg) to male Balb/c mice 8 to 15 weeks old. Three hours or 6 hours after single oral administrations of 30 mg/kg, animals were anaesthetized with pentobarbital and blood samples (400 μL) were collected from cava vein and transferred into glass tubes containing lithium heparin. After centrifugation (1500-2000 g for 10 minutes), plasma samples were frozen at a temperature close to −20° C. until analysis.
# In order to detect the ex vivo activity of the products in the plasmas, we have used the autophosphorylation assay in HEK cells described earlier. For this purpose, transfected cells were incubated with plasma (10%) instead of compounds. Results are expressed as percent of inhibition of VEGFR-3 autophosphorylation in comparison to untreated cells (maximum autophosphorylation) and to untransfected cells (background).
# Results are expressed as a percentage of inhibition of VEGFR-3 auto-phosphorylation of in HEK cells, in presence of a plasma sample collected (at a time), after per os (p.o.) administration of compounds. In order to evaluate the increase of this activity for compounds of the invention, a comparison with compounds of the prior art (WO 2009/007535) and subjected to the same measurement is made in table 3.
# VEGFR-3 [2] = biological target: T1, VEGFR-3; assay: Effect of compounds on VEGFR-3 auto-phosphorylation in HEK cells (ELISA); type: cell-based; settings: autophosphorylation of VEGFR-3-Flag overexpressed in HEK293T cells, 1 h incubation with compound
# Experimental: Effect of Compounds on VEGFR-3 Auto-Phosphorylation in HEK Cells
# The effects of compounds in blocking VEGFR-3 autophosphorylation were quatified by ELISA after Overexpression of VEGFR-3 in HEK cells. HEK293T cells were maintained in MEM supplemented with 10% foetal calf serum (FCS) and glutamine. The day before transfection, […] were seeded on 48 wells plates and transfection was done using Fugene-6 (Roche, Basel). Fugene-6 (18 μL) was preincubated for 5 min with 282 μl of optimem. Then 3 μg DNA corresponding VFGR-3-Flag was added and left at room temperature during 10 min before distributing 200 μl on HEK cells. After 24 h, the medium was removed and replaced by a new one without serum and incubated for 1 h with different concentrations (ranging from 3 to 1000 nM) of each compound. After additional 30 min incubation with Orthovanadate (0.4 mM), cells were washed with cold PBS supplemented by orthovanadate and then lysed with 300 μl of RIPA buffer. Lysates were then centrifuged during 10 min at 10000 g. Supernatants (75 μl) were distributed in duplicate on 96 well plate precoated with the anti-Flag and left during 1 hour at room temperature. After 3 washes with TBS buffer containing 0.5% tween 20, the anti-phospho-tyrosine conjugated to the HRP was added and incubated for 1 hour at room temperature. Wells were then washed 3 times with TBS buffer containing tween 20 (0.5%) and MgCl2 (2 mM). The reaction was stopped with 50 μl of H2SO4 (2 N) and the signal was read at Envision at 485 and 530.
# The concentration-response curves were analyzed with internal software Biost@t-SPEED v2.0 using the 4-parameter logistic model according to Ratkovsky and Reedy (Ratkovsky D A., Reedy T J. Choosing near-linear parameters in the four parameters logistic model radioligands and related assays. Biometrics 1986 September 42(3):575-82.)
# [3] = 6 h after single oral administration of 30 mg/kg to male Balb/c mice
# [4] = 3 h after single oral administration of 30 mg/kg to male Balb/c mice
# T1 sequence (P35916 25-1363, species assumed): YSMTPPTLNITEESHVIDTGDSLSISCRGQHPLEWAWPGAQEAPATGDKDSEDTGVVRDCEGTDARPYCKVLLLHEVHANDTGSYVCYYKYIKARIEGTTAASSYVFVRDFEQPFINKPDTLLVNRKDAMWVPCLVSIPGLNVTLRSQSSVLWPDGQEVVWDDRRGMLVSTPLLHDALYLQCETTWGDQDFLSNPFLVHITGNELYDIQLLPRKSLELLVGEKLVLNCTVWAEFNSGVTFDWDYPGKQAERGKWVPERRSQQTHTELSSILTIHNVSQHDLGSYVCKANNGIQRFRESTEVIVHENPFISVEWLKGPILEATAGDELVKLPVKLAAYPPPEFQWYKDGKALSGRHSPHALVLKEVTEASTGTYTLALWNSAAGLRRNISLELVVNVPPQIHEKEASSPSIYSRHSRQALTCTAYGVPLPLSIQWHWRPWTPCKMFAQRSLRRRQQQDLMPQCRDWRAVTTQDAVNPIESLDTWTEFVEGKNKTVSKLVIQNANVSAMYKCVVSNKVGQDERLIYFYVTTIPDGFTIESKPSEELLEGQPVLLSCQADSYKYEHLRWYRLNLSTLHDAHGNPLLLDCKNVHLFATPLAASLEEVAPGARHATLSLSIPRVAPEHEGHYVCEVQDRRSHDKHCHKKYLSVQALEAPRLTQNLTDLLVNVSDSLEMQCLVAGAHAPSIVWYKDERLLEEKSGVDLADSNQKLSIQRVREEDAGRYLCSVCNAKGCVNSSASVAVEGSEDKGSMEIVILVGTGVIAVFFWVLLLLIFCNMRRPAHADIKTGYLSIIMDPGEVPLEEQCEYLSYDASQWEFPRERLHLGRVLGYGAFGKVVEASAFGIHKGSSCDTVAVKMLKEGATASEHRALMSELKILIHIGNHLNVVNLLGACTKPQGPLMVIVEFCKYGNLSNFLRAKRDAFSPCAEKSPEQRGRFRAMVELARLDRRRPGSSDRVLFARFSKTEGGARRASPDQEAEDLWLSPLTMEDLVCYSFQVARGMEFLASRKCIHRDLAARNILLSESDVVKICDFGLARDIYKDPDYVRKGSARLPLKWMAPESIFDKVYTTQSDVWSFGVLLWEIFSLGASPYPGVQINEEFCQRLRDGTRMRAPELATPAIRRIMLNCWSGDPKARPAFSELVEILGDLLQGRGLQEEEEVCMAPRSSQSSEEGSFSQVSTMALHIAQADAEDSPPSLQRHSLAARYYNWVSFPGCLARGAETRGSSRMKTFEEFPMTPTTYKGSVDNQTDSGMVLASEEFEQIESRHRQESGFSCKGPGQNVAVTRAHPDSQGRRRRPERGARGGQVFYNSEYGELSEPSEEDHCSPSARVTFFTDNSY
Structure (SMILES),inhibition at 30 mg/kg (VEGFR-3 [1]; [3]),IC50 (VEGFR-3 [2]),inhibition at 30 mg/kg (VEGFR-3 [1]; [4])
"CCn1c(N)c(-c2ncc[nH]2)c(=O)c2ccc(C#CC(C)(O)c3ccccc3)nc21 (racemic) [Compound 17, 2-Amino-1-ethyl-7-(3-hydroxy-3-phenylbut-1-yn-1-yl)-3-(1H-imidazol-2-yl)-1,8-naphthyridin-4(1H)-one]",37%,13 nM,–
"CCn1c(N)c(-c2ncc[nH]2)c(=O)c2ccc(C#C[C@@](C)(O)COC)nc21 [Compound 1, 2-Amino-1-ethyl-7-((3R)-3-hydroxy-4-methoxy-3-methyl-but-1-ynyl)-3-(1H-imidazol-2-yl)-1H-[1,8]naphthyridin-4-one]",83%,25 nM,–
"CCC(O)C#Cc1ccc2c(=O)c(-c3ncc[nH]3)c(N)n(CC3CC3)c2n1 (racemic) [Compound 6, 2-Amino-1-(cyclopropylmethyl)-7-(3-hydroxypent-1-yn-1-yl)-3-(H-imidazol-2-yl)-1,8-naphthyridin-4(1H)-one]",–,85 nM,–
"CCn1c(N)c(-c2ncc[nH]2)c(=O)c2ccc(C#C[C@](C)(O)COC)nc21 [Compound 29, 2-Amino-1-ethyl-7-((3S)-3-hydroxy-4-methoxy-3-methyl-but-1-ynyl)-3-(1H-imidazol-2-yl)-1,8-naphthyridin-4(1H)-one]",–,145 nM,–
"CCn1c(N)c(-c2ncc[nH]2)c(=O)c2ccc(C#CC(C)(O)c3ccccc3F)nc21 (racemic) [Compound 9, 2-Amino-1-ethyl-7-[3-(2-fluorophenyl)-3-hydroxybut-1-yn-1-yl]-3-(1H-imidazol-2-yl)-1,8-naphthyridin-4(1H)-one]",–,16 nM,–
"CCn1c(N)c(-c2ncc[nH]2)c(=O)c2ccc(C#C[C@@](C)(O)COC)cc21 [Compound 7, 2-Amino-1-ethyl-7-[(3R)-3-hydroxy-4-methoxy-3-methylbut-1-yn-1-yl]-3-(1H-imidazol-2-yl)quinolin-4(1H)-one]",–,19 nM,–
"CCn1c(N)c(-c2nc(C)c[nH]2)c(=O)c2ccc(C#C[C@@](C)(O)COC)nc21 [Compound 5, 2-Amino-1-ethyl-7-[(3R)-3-hydroxy-4-methoxy-3-methylbut-1-yn-1-yl]-3-(4-methyl-1H-imidazol-2-yl)-1,8-naphthyridin-4(1H)-one]",86%,45 nM,–
"CCn1c(N)c(-c2ncc[nH]2)c(=O)c2ccc(C#CC(C)(O)c3cccc(F)c3)nc21 (racemic) [Compound 18, 2-Amino-1-ethyl-7-[3-(3-fluorophenyl)-3-hydroxybut-1-yn-1-yl]-3-(1H-imidazol-2-yl)-1,8-naphthyridin-4(1H)-one]",–,36 nM,–

# Next, values leading:
inhibition at 30 mg/kg (VEGFR-3 [1]; [3]),IC50 (VEGFR-3 [2]),inhibition at 30 mg/kg (VEGFR-3 [1]; [4]),Structure (SMILES)
–,125 nM,51%,"CCn1c(N)c(-c2ncc[nH]2)c(=O)c2ccc(C#CC(C)(O)CO)nc21 (racemic) [Compound 3, 2-Amino-7-(3,4-dihydroxy-3-methyl-but-1-ynyl)-1-ethyl-3-(1H-imidazol-2-yl)-1H-[1,8]naphthyridin-4-one]"
23%,41 nM,–,"CCn1c(N)c(-c2ncc[nH]2)c(=O)c2ccc(C#CC3(O)CCC3)nc21 [Compound 13, 2-Amino-1-ethyl-7-[(1-hydroxycyclobutyl)ethynyl]-3-(1H-imidazol-2-yl)-1,8-naphthyridin-4(1H)-one]"
–,119 nM,48%,"CCn1c(N)c(-c2ncc[nH]2)c(=O)c2ccc(C#CC(C)(O)CC)nc21 (racemic) [Compound 16, 2-Amino-1-ethyl-7-(3-hydroxy-3-methylpent-1-yn-1-yl)-3-(1H-imidazol-2-yl)-1,8-naphthyridin-4(1H)-one]"
–,85 nM,–,"CCCC(O)C#Cc1ccc2c(=O)c(-c3ncc[nH]3)c(N)n(CC)c2n1 (racemic) [Compound 24, 2-Amino-1-ethyl-7-(3-hydroxyhex-1-yn-1-yl)-3-(1H-imidazol-2-yl)-1,8-naphthyridin-4(1H)-one]"
26%,38 nM,–,"CCn1c(N)c(-c2ncc[nH]2)c(=O)c2ccc(C#CC(C)O)nc21 (racemic) [Compound 22, 2-Amino-1-ethyl-7-(3-hydroxybut-1-yn-1-yl)-3-(1H-imidazol-2-yl)-1,8-naphthyridin-4(1H)-one]"
